Laboratory results reported in patent US20130345243A1, “1H-PYROLLO[3,2-D]PYRIMIDINEDIONE DERIVATIVES” (GLAXOSMITHKLINE LLC, priority 2011, published 2013).

Columns and labels:
[1] = system: ob/ob and db/db mice; settings: 8 day administration; cited from earlier work
[2] = system: Human recombinant AMPK; assay: AMPK Enzymatic Assay (Z'Lyte FRET); assay type: biochemical; settings: ATP 100 μM, peptide 2 μM, means of at least 2 independent experiments
Procedure: Human recombinant AMPK (Invitrogen #PV4673 & #PV4675) is used in a FRET assay format (Z'Lyte—Invitrogen). Assay conditions are as follow: ATP 100 μM, peptide (Invitrogen # PR8650) 2 μM, 1% final DMSO in Z'Lyte kinase buffer. Reaction is initiated by addition of 0.2-0.8 ng of AMPK and incubated for 1-hour @ 30° C. A further 1-hour incubation @ 30° C. with the development reagent (Invitrogen # PR5194) is performed. FRET signal is then measured and converted to “% peptide phosphorylation” according to Z'Lyte given calculation procedure. Evaluation of compounds is carried out using concentration-response curves. Final data are expressed in “% activation” calculating the ratio of “% peptide phosphorylation” between compound-condition and basal-condition. Alternatively pEC200 (−Log(compound concentration leading to a 2-fold AMPK activity increase)) is produced through fitting of the concentration-response curves. All data are means of at least 2 independent experiments.

pEC50 [2]	SMILES	reduces blood glucose [1] [%]
	NC(=O)c1ncn([C@@H]2O[C@H](CO)[C@@H](O)[C@H]2O)c1N [AICAR]	35
6.2	Cl.Nc1nc(-c2ccc(-n3c(Cl)cc4[nH]c(=O)n(-c5cccc(C(=O)O)c5)c(=O)c43)cc2)cs1 [Example 11, 3-(5-(4-(2-Aminothiazol-4-yl)phenyl)-6-chloro-2,4-dioxo-1H-pyrrolo[3,2-d]pyrimidin-3(2H,4H,5H)-yl)benzoic acid hydrochloride]	
6.1	Nc1nc(-c2ccc(-n3c(Cl)cc4[nH]c(=O)n(-c5ccccc5F)c(=O)c43)cc2)cs1 [Example 12, 5-[4-(2-Amino-1,3-thiazol-4-yl)phenyl]-6-chloro-3-(2-fluorophenyl)-1H-pyrrolo[3,2-d]pyrimidine-2,4(3H,5H)-dione]	
